According to patent publication US12559474B2, “Triazine derivatives having virus replication inhibitory activity and pharmaceutical composition comprising the same” (priority 2021, dated 2026):
Several values for one entry are separate records, joined by “and”; a condition that tells them apart may be missing. Equal entries are not always repeated. Where two headings read alike, the source gives them in different places.

Target: SARS-CoV-2 3CL protease (Severe acute respiratory syndrome coronavirus 2, UniProt P0DTD1)
Assay: biochemical

| Structure (SMILES) | IC50 (IC50) | IC50 (50% SARS-CoV-2 3CL protease inhibitory concentration, RapidFire MS, read-out: IC50) [nM] |
| --- | --- | --- |
| O=c1[nH]cccc1Cn1c(=O)nc(NC2CCCC2)n(Cc2cc(F)c(F)c(F)c2)c1=O [Compound I-0204] | 610 nM and 100 to 1000 nM | – |
| CC(=O)NCCn1cc2cc(Nc3nc(=O)n(Cc4cc(Cl)c[nH]c4=O)c(=O)n3Cc3cc(F)c(F)c(F)c3)c(Cl)cc2n1 [Compound I-0453] | < 100 nM | – |
| CNC(=O)c1cnc2[nH]c(=O)c(Cn3c(=O)nc(Nc4ccc5c(c4)CCO5)n(Cc4cc(F)c(F)c(F)c4)c3=O)cc2c1 [II-0314] | < 100 nM | – |
| Cn1cnc(Cn2c(=O)nc(Nc3cc4cn(CC(=O)N5CCC5)nc4cc3Cl)n(Cc3cc(F)c(F)c(Cl)c3)c2=O)n1 [II-0153] | < 100 nM | – |
| CNC(=O)COc1ccc(Nc2nc(=O)n(Cc3ccc[nH]c3=O)c(=O)n2Cc2cc(F)c(F)c(F)c2)c(Cl)c1 [Compound I-0463] | < 100 nM | – |
| Cn1cnc(Cn2c(=O)nc(Nc3cc4cn(C)nc4cc3Cl)n(Cc3cc(F)cc4c3OCOC4)c2=O)n1 [II-0211] | < 100 nM | – |
| Cn1cc2cc(Nc3nc(=O)n(Cc4cc(C(=O)NC5CC5)c[nH]c4=O)c(=O)n3Cc3cc(F)c(F)c(F)c3)c(Cl)cc2n1 [Compound I-0333] | < 100 nM | – |
| COc1ccc(Nc2nc(=O)n(Cc3cn(CC(N)=O)cn3)c(=O)n2Cc2cc(F)c(F)c(F)c2)cc1 [Compound I-0416] | 3500 nM and 1000 to 10000 nM | – |
| COCCN(C)C(=O)Cn1cc2cc(Nc3nc(=O)n(Cc4ncn(C)n4)c(=O)n3Cc3cc(Cl)c(F)cc3F)c(Cl)cc2n1 [II-0135] | < 100 nM | – |
| Cc1nc2cc(Cl)c(Nc3nc(=O)n(Cc4ccc[nH]c4=O)c(=O)n3Cc3cc(F)c(F)c(F)c3F)cc2n1C [Compound I-0265] | < 100 nM | – |
| Cc1cncc(-n2c(=O)nc(Nc3ccc(N=S4(=O)CCCC4)cc3C(F)(F)F)n(Cc3cc(Cl)ccc3C)c2=O)c1 [II-0614] | < 100 nM | – |
| Cc1cncc(-n2c(=O)nc(Nc3ccc(N=S(C)(C)=O)cc3OC(F)(F)F)n(Cc3cc(Cl)ccc3C)c2=O)c1 [II-0632] | < 100 nM | – |
| Cc1nc2cc(Cl)c(Nc3nc(=O)n(Cc4ccc[nH]c4=O)c(=O)n3Cc3cc(F)c(F)cc3F)cc2n1C [Compound I-0006] | < 100 nM | – |
| O=c1[nH]cccc1Cn1c(=O)nc(NC2CCc3[nH]ncc3C2)n(Cc2cc(F)c(F)c(F)c2)c1=O (racemic) [Compound I-0208] | 230 nM and 100 to 1000 nM | – |
| Cc1cncc(-n2c(=O)nc(Nc3cc4c(=O)n(C)cnc4cc3F)n(Cc3ccc(F)c(C#N)c3)c2=O)c1 [II-0480] | < 100 nM | – |
| CNC(=O)Cn1c(=O)[nH]/c(=N\c2cc3cn(C)nc3cc2Cl)n(Cc2cc(F)c(F)c(F)c2)c1=O [II-0328] | < 100 nM | – |
| Cn1cnc(Cn2c(=O)nc(Nc3cc4c(=O)n(C)cnc4cc3Cl)n(Cc3cc(F)c(F)cc3F)c2=O)n1 [II-0013] | < 100 nM | – |
| COc1ccc(Cc2nc(=O)n(Cc3ccc[nH]c3=O)c(=O)n2Cc2cc(F)c(F)c(F)c2)cc1 [II-0327] | 1500 nM | – |
| COc1ccc(Nc2nc(=O)n(Cc3c[nH]ccc3=O)c(=O)n2Cc2cc(F)c(F)c(F)c2)cc1 [Compound I-0083] | 1800 nM and 1000 to 10000 nM | – |
| COc1ccc(Nc2cc(=O)n(Cc3ccc[nH]c3=O)c(=O)n2Cc2cc(F)c(F)c(F)c2)cc1 [Compound I-0326] | 65 nM | – |
| COc1ccc(Nc2nc(=O)n(Cc3cc(C(N)=O)c[nH]c3=O)c(=O)n2Cc2cc(F)c(F)c(F)c2)cc1 [Compound I-0088] | < 100 nM | – |
| CN(C)C(=O)Cn1cc2cc(Nc3nc(=O)n(Cc4ncn(C)n4)c(=O)n3Cc3cc(F)c(F)c(Cl)c3)c(Cl)cc2n1 [II-0277] | < 100 nM | – |

| Structure (SMILES) | IC50 (IC50) | IC50 (50% SARS-CoV-2 3CL protease inhibitory concentration, RapidFire MS, read-out: IC50) [nM] |
| --- | --- | --- |
| COc1ccc(Nc2nc(=O)n(Cc3cc(-c4cnn(C)c4)c[nH]c3=O)c(=O)n2Cc2cc(F)c(F)c(F)c2)cc1 [Compound I-0259] | < 100 nM | – |
| Cn1cnc(Cn2c(=O)nc(Nc3cc4cn(C)nc4cc3Cl)n(Cc3ccc(F)c(F)c3)c2=O)n1 [II-0635] | < 100 nM | – |
| O=c1[nH]cccc1Cn1c(=O)nc(Nc2cc3nccnc3cc2Cl)n(Cc2cc(F)c(F)c(F)c2)c1=O [Compound I-0098] | < 100 nM | – |
| Cn1cnc(Cn2c(=O)nc(Nc3cc4oc(N)nc4cc3Cl)n(Cc3cc(F)c(F)c(F)c3)c2=O)n1 [II-0511] | < 100 nM | – |
| Cn1cnc(Cn2c(=O)nc(Nc3cc4cn(CC(=O)N5CC(F)(F)C5)nc4cc3Cl)n(Cc3cc(Cl)c(F)cc3F)c2=O)n1 [II-0136] | < 100 nM | – |
| O=C(O)COc1ccc(Nc2nc(=O)n(Cc3ccc[nH]c3=O)c(=O)n2Cc2cc(F)c(F)c(F)c2)c(Cl)c1 [Compound I-0464] | < 100 nM | – |
| Cc1nc2cc(Cl)c(Nc3nc(=O)n(Cc4c[nH]c(=O)[nH]c4=O)c(=O)n3Cc3cc(F)c(F)c(F)c3)cc2n1C [Compound I-0407] | < 100 nM | – |
| COC(=O)Cn1cnc(Cn2c(=O)nc(Nc3ccc(OC)cc3)n(Cc3cc(F)c(F)c(F)c3)c2=O)c1 [Compound I-0414] | 250 nM and 100 to 1000 nM | – |
| Cc1cncc(-n2c(=O)nc(Nc3cc4c(cc3C)nc(C)n4C)n(Cc3ccc(F)c(C#N)c3)c2=O)c1 [II-0358] | < 100 nM | – |
| Cc1nc2cc(Cl)c(Nc3nc(=O)n(Cc4ccc[nH]c4=O)c(=O)n3Cc3cc(F)cc(Cl)c3)cc2n1C [Compound I-0005] | < 100 nM | – |
| Cn1cnc(Cn2c(=O)nc(Nc3cc4cn(CC(=O)O)nc4cc3Cl)n(Cc3cc(Cl)c(F)cc3F)c2=O)n1 [II-0319] | < 100 nM | – |
| Cc1cncc(-n2c(=O)nc(Nc3cc4c(=O)n(C)cnc4cc3Cl)n(Cc3ccc(F)c(C#N)c3)c2=O)c1 [II-0467] | < 100 nM | – |
| Cn1cnc(Cn2c(=O)nc(Nc3cc4sc(NCC(F)F)nc4cc3Cl)n(Cc3ccc(F)c(C#N)c3)c2=O)n1 [II-0502] | < 100 nM | – |
| Cn1cnc(Cn2c(=O)nc(Nc3cc4cn(CC(=O)N5CC(F)(F)C5)nc4cc3Cl)n(Cc3cc(F)c(F)c(Cl)c3)c2=O)n1 [II-0143] | < 100 nM | – |
| CC(=O)NCCn1cc2cc(Nc3nc(=O)n(Cc4ccccn4)c(=O)n3Cc3cc(F)c(F)cc3F)c(Cl)cc2n1 [II-0248] | < 100 nM | – |
| Cc1cncc(-n2c(=O)nc(Nc3ccc(N=S4(=O)CCCC4)cc3)n(Cc3cc(Cl)ccc3C)c2=O)c1 [II-0618] | < 100 nM | – |
| CN(C)C(=O)Cn1cc2cc(Nc3nc(=O)n(Cc4ncn(C)n4)c(=O)n3Cc3cc(F)c(F)cc3F)c(Cl)cc2n1 [II-0280] | < 100 nM | – |
| Cn1cnc(Cn2cc3cc(Nc4nc(=O)n(Cc5ncn(C)n5)c(=O)n4Cc4cc(F)c(F)c(Cl)c4)c(Cl)cc3n2)n1 [II-0004] | < 100 nM | – |
| Cc1nc2cc(Cl)c(Nc3nc(=O)n(Cc4ccc[nH]c4=O)c(=O)n3Cc3cc(F)c(F)c(C#N)c3)cc2n1C [Compound I-0010] | < 100 nM | – |
| Cn1cnc(Cn2c(=O)nc(Nc3cc4c(cc3Cl)nc3n4CCN3)n(Cc3cc(F)c(F)c(Cl)c3)c2=O)n1 [II-0411] | < 100 nM | – |
| Cn1cnc(Cn2c(=O)nc(NC34CC(Nc5ncc6ccccc6n5)(C3)C4)n(Cc3cc(F)c(F)c(F)c3)c2=O)n1 [II-0472] | < 100 nM | – |
| CN1Cc2cc(Nc3nc(=O)n(Cc4ccc[nH]c4=O)c(=O)n3Cc3cc(F)c(F)c(F)c3)ccc2C1=O [Compound I-0438] | 740 nM and 100 to 1000 nM | – |

| Structure (SMILES) | IC50 (IC50) | IC50 (50% SARS-CoV-2 3CL protease inhibitory concentration, RapidFire MS, read-out: IC50) [nM] |
| --- | --- | --- |
| O=c1[nH]cccc1Cn1c(=O)nc(NC23CC(Nc4ccccn4)(C2)C3)n(Cc2cc(F)c(F)c(F)c2)c1=O [II-0476] | < 100 nM | – |
| CS(=O)(=O)Nc1ccc(Nc2nc(=O)n(Cc3ccc[nH]c3=O)c(=O)n2Cc2cc(F)c(F)c(F)c2)cc1 [Compound I-0151] | 970 nM and 100 to 1000 nM | – |
| CNc1nc2cc(Cl)c(Nc3nc(=O)n(Cc4ncn(C)n4)c(=O)n3Cc3cc(Cl)c(F)cn3)cc2s1 [II-0266] | < 100 nM | – |
| N#Cc1cc(Cn2c(Nc3ccc4c(c3)CCO4)nc(=O)n(-c3cncc(CO)c3)c2=O)ccc1F [Compound I-0356] | < 100 nM | – |
| Cn1cc2cc(Nc3nc(=O)n(-c4cnc5ccccn45)c(=O)n3Cc3ccc(F)c(C#N)c3)c(Cl)cc2n1 [II-0488] | < 100 nM | – |
| CC(=O)N1CC(n2cc3cc(Nc4nc(=O)n(Cc5ccc[nH]c5=O)c(=O)n4Cc4cc(F)c(F)c(F)c4)c(Cl)cc3n2)C1 [Compound I-0448] | < 100 nM | – |
| COc1ccc(Nc2nc(=O)n(Cc3cc(C(=O)O)c[nH]c3=O)c(=O)n2Cc2cc(F)c(F)c(F)c2)cc1 [Compound I-0089] | < 100 nM | – |
| COc1ccc(Nc2nc(=O)n(Cc3cc(C(=O)NCCN(C)C)c[nH]c3=O)c(=O)n2Cc2cc(F)c(F)c(F)c2)cc1 [Compound I-0092] | < 100 nM | – |
| CCNC(=O)Cn1cc2cc(Nc3nc(=O)n(Cc4ncn(C)n4)c(=O)n3Cc3cc(F)c(F)c(Cl)c3)c(Cl)cc2n1 [II-0150] | < 100 nM | – |
| Cn1cnc(Cn2c(=O)nc(Nc3cc4cn(C)nc4cc3Cl)n(CC3CCC(F)(F)CC3)c2=O)n1 [II-0607] | 100 to 1000 nM | – |
| Cn1cnc(Cn2c(=O)nc(Nc3cc4cn(C)nc4cc3Cl)n(Cc3cccc4cccnc34)c2=O)n1 [II-0224] | 1900 nM | – |
| COc1ccc(Nc2nc(=O)n(Cc3cc(-c4cccnc4)c[nH]c3=O)c(=O)n2Cc2cc(F)c(F)c(F)c2)cc1 [Compound I-0386] | < 100 nM | – |
| CN1CC[C@H](n2cc3cc(Nc4nc(=O)n(Cc5ncn(C)n5)c(=O)n4Cc4cc(Cl)c(F)cc4F)c(Cl)cc3n2)C1=O [II-0447] | < 100 nM | – |
| O=c1[nH]cccc1Cn1c(=O)nc(Nc2ccc(O)cc2)n(Cc2cc(F)c(F)c(F)c2)c1=O [Compound I-0027] | < 100 nM | – |
| COc1ncc(Nc2nc(=O)n(-c3cncc(C)c3)c(=O)n2Cc2ccc(F)c(C#N)c2)c(C)n1 [II-0124] | 3300 nM | – |
| O=c1[nH]cccc1Cn1c(=O)nc(NC23CC(Nc4ncc(C5CC5)cn4)(C2)C3)n(Cc2cc(F)c(F)c(F)c2)c1=O [II-0445] | < 100 nM | – |
| Cn1nnc2cc(Cl)c(Nc3nc(=O)n(Cc4ccc[nH]c4=O)c(=O)n3Cc3cc(F)c(F)c(F)c3)cc21 [Compound I-0440] | < 100 nM | – |
| CC(=O)Nc1nc2cc(F)c(Nc3nc(=O)n(Cc4ncn(C)n4)c(=O)n3Cc3cc(F)c(F)c(Cl)c3)cc2s1 [II-0012] | < 100 nM | – |
| Cc1cncc(-n2c(=O)nc(Nc3cc4cn(C)nc4cc3Cl)n(C[C@@H]3CCCN3)c2=O)c1 [II-0085] | – | 9200 |
| CO[C@H]1C[C@H](Nc2nc(=O)n(Cc3ccc[nH]c3=O)c(=O)n2Cc2cc(F)c(F)c(F)c2)C1 [Compound I-0207] | 1900 nM and 1000 to 10000 nM | – |
| Cc1cc(Oc2ccc(Nc3nc(=O)n(Cc4ccc[nH]c4=O)c(=O)n3Cc3cc(F)c(F)c(F)c3)cc2)no1 [Compound I-0048] | 440 nM and 100 to 1000 nM | – |
| COc1ccc(Nc2nc(=O)n(Cc3ncn(C)n3)c(=O)n2C2(c3ccc(F)c(F)c3)CC2)cc1 [II-0644] | 3500 nM | – |
